Laboratory results taken from PubChem BioAssay AID1745844 (Carcinogenic Potency Database (CPDB), 2022).
Active and inactive are the calls of the source. The rule behind the calls is not given here.

Test system: rodent lifetime carcinogenesis bioassay, tumor incidence TD50
Experiment: carcinogenic potency in animals, long-term in vivo studies, CPDB compilation (AID 1745844)
Conditions: in feed

Oc1c(Cl)cc(Cl)c(Cl)c1Cc1c(O)c(Cl)cc(Cl)c1Cl
carcinogen call (mouse, strain C57BL, females, site: any site (literature study), lesion: several types, types named in the paper, dosed 104 weeks, study length 104 weeks): negative (inactive)
TD50 (mouse, strain C57BL, females, site: liver, lesion: hepatoma, dosed 104 weeks, study length 104 weeks): 434 mg/kg/day (inactive)
TD50 (mouse, strain C57BL, males, site: any site (literature study), lesion: several types, types named in the paper, dosed 104 weeks, study length 104 weeks): 900 mg/kg/day (inactive)
carcinogen call (mouse, strain C57BL, males, site: liver, lesion: one or several types, types not named, dosed 104 weeks, study length 104 weeks): negative (inactive)
carcinogen call (mouse, strain C57BL, males, site: lung, lesion: one or several types, types not named, dosed 104 weeks, study length 104 weeks): negative (inactive)
TD50 (mouse, strain XVII/G, females, site: any site (literature study), lesion: several types, types named in the paper, dosed 104 weeks, study length 104 weeks): 39.4 mg/kg/day (inactive)
carcinogen call (mouse, strain XVII/G, females, site: liver, lesion: one or several types, types not named, dosed 104 weeks, study length 104 weeks): negative (inactive)
TD50 (mouse, strain XVII/G, females, site: lung, lesion: one or several types, types not named, dosed 104 weeks, study length 104 weeks): 33.4 mg/kg/day (inactive)
TD50 (mouse, strain XVII/G, males, site: any site (literature study), lesion: several types, types named in the paper, dosed 104 weeks, study length 104 weeks): 17.8 mg/kg/day (inactive)
TD50 (mouse, strain XVII/G, males, site: liver, lesion: adenoma, dosed 104 weeks, study length 104 weeks): 450 mg/kg/day (inactive)
TD50 (mouse, strain XVII/G, males, site: lung, lesion: one or several types, types not named, dosed 104 weeks, study length 104 weeks): 17.8 mg/kg/day (inactive)
carcinogen call (rat, strain Fischer 344, females, site: any site (literature study), lesion: several types, types named in the paper, dosed 106 weeks, study length 106 weeks): negative (inactive)
TD50 (rat, strain Fischer 344, males, site: any site (literature study), lesion: several types, types named in the paper, dosed 106 weeks, study length 106 weeks): 30.4 mg/kg/day
TD50 (rat, strain Fischer 344, males, site: subcutaneous tissue, lesion: fibrosarcoma, dosed 106 weeks, study length 106 weeks): 41.3 mg/kg/day (inactive)
TD50 (rat, strain Fischer 344, males, site: tunica vaginalis, lesion: mesothelioma, NOS, dosed 106 weeks, study length 106 weeks): 57.5 mg/kg/day
